The values that follow come from ChEMBL document CHEMBL6103556, “Design and evaluation of anaplastic lymphoma kinase degraders using a covalent fumarate handle” (Bioorg Med Chem Lett, 2025).

Assay [1] deals with NCI-H3122. The experiment in a line: cells. As to conditions: Homo sapiens, NCI-H3122, 72 h.
Description: Antiproliferative activity against human NCI-H3122 cells expressing EML4-ALK fusion assessed as cell growth inhibition incubated for 72 hrs by CellTiter-Glo assay
The subject of assay [2] is NCI-H3122. Description: Induction of EML4-ALK degradation in human NCI-H3122 cells assessed as reduction in ALK level by measuring fold change at 100 nM measured after 24 hrs by Western blot analysis (reference value: […]). Format: cell-based. On the technique in general: In western blotting, separated proteins are transferred to a membrane and probed.
Assay [3] concerns NCI-H3122. Description: Antiproliferative activity against human NCI-H3122 cells transfected with siRNF126 assessed as cell growth inhibition measured after 72 hrs by CellTiter-Glo assay. Format: functional. (In general: Cellular ATP, detected with luciferase, serves as a proxy for viable cell number.)
For assay [4], the target named is T1, Proto-oncogene tyrosine-protein kinase ROS (Homo sapiens, UniProt P08922). The experiment in a line: Inhibition of ROS (unknown origin) by Eurofins kinase profiler method.
T1 sequence (P08922 whole entry): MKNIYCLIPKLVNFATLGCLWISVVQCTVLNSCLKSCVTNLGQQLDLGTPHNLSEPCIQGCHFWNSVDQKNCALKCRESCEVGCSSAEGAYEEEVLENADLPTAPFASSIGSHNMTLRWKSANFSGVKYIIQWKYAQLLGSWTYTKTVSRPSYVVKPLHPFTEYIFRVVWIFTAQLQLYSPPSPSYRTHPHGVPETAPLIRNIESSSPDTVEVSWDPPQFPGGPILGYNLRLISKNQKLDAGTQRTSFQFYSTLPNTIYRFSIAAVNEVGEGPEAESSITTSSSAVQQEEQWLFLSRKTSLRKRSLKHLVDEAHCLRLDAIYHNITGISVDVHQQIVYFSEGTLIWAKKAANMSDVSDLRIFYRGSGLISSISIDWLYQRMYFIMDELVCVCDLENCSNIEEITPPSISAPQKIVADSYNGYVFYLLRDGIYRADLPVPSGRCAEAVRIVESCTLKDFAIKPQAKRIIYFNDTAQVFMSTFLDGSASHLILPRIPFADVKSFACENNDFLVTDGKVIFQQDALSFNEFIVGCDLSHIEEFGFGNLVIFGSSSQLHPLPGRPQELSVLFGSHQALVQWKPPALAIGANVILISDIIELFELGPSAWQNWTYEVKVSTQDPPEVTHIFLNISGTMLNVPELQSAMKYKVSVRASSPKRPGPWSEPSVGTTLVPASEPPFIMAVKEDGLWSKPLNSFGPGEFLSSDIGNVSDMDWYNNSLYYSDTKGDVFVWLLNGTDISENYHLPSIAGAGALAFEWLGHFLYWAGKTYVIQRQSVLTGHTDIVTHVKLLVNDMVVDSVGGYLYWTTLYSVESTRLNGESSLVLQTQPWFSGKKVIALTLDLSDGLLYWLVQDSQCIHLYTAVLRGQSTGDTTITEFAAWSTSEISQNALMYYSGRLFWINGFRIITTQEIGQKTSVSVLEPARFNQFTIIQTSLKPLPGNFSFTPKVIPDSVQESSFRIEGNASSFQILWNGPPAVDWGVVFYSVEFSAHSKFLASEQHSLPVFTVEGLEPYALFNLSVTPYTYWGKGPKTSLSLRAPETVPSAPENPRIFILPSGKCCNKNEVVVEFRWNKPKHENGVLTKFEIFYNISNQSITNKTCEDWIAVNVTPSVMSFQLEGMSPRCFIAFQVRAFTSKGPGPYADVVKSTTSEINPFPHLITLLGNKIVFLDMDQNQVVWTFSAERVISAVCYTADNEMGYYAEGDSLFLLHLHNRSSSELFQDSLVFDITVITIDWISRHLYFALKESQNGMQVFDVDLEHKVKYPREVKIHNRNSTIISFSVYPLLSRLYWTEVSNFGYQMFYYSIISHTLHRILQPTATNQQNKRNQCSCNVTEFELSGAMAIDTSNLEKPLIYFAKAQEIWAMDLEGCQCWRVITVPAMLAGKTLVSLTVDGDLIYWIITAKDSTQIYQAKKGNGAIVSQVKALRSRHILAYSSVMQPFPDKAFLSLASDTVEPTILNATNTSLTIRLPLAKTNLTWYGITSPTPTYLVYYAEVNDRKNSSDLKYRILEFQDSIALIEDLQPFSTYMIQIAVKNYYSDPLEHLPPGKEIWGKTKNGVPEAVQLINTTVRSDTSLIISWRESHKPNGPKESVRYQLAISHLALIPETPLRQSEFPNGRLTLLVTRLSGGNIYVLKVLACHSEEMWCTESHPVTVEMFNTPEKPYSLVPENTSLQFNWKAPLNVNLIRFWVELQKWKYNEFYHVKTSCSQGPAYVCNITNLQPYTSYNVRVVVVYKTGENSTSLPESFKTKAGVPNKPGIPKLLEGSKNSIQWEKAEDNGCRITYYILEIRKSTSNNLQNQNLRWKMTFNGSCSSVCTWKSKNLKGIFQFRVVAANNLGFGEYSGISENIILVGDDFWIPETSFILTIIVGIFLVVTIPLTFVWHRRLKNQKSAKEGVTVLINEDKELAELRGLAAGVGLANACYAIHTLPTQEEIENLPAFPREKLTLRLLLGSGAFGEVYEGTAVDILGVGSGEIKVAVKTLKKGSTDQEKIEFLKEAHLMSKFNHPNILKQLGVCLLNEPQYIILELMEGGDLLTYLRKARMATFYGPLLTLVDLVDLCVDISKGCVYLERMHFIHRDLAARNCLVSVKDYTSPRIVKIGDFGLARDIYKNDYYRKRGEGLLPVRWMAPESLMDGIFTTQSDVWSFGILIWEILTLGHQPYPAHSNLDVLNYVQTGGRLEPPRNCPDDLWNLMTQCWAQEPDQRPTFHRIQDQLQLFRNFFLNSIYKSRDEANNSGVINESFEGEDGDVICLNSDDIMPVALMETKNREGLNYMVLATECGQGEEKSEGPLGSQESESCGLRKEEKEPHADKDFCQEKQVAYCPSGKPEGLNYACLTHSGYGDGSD
The target of assay [5] is Insulin-like growth factor 1 receptor (Homo sapiens) (UniProt P08069). The experiment in a line: Inhibition of IGF-1R (unknown origin) at 1 uM by Eurofins kinase profiler method relative to control.
Insulin-like growth factor 1 receptor (Homo sapiens), sequence (P08069 31-736 limits assumed): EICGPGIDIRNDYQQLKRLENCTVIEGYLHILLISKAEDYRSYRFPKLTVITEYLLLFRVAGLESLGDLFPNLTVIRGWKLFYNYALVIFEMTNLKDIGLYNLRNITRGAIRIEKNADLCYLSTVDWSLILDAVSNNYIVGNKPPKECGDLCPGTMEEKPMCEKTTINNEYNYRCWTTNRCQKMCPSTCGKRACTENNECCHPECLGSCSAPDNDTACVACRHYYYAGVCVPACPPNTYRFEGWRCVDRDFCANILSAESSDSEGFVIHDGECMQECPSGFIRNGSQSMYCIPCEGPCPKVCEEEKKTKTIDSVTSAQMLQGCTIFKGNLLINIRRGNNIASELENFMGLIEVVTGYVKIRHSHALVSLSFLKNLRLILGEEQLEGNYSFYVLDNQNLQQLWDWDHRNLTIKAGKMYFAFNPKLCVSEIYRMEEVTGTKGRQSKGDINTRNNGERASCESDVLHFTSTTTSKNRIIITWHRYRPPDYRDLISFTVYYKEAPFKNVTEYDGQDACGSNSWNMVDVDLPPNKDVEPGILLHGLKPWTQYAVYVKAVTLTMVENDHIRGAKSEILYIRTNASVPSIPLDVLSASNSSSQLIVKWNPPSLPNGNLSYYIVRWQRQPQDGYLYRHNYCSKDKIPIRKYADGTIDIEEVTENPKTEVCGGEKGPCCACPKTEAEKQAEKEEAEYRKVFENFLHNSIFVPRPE
Insulin-like growth factor 1 receptor (Homo sapiens), sequence (P08069 741-1367 limits assumed): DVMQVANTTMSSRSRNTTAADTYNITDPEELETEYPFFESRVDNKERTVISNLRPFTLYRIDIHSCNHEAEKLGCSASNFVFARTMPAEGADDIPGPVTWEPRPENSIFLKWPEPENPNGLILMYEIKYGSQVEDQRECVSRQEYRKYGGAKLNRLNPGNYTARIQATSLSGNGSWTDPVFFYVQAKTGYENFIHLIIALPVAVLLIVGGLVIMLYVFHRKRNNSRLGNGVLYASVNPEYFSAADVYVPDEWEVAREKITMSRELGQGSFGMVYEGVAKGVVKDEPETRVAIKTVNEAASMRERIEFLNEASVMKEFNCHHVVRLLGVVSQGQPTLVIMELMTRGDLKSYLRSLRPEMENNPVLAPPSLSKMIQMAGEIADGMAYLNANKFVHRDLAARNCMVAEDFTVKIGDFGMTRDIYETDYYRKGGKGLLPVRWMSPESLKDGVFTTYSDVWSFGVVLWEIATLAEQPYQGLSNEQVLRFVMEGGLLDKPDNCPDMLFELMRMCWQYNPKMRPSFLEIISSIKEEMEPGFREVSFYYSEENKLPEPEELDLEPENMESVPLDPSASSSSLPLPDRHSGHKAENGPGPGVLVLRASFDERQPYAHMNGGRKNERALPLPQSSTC
The target in assay [6] is Epidermal growth factor receptor (Homo sapiens, UniProt P00533, L858R). The experiment in a line: Inhibition of EGFR L858R (unknown origin) by Eurofins kinase profiler method.
Assay [7] has as its target Insulin receptor (Homo sapiens) (UniProt P06213). The experiment in a line: Inhibition of IR (unknown origin) at 1 uM by Eurofins kinase profiler method relative to control.
Assay [8] relates to Epidermal growth factor receptor (Homo sapiens), P00533 [L858R]. The experiment in a line: Inhibition of EGFR L858R (unknown origin) at 1 uM by Eurofins kinase profiler method relative to control.
Epidermal growth factor receptor (Homo sapiens), P00533 [L858R], sequence (P00533 whole entry L858R): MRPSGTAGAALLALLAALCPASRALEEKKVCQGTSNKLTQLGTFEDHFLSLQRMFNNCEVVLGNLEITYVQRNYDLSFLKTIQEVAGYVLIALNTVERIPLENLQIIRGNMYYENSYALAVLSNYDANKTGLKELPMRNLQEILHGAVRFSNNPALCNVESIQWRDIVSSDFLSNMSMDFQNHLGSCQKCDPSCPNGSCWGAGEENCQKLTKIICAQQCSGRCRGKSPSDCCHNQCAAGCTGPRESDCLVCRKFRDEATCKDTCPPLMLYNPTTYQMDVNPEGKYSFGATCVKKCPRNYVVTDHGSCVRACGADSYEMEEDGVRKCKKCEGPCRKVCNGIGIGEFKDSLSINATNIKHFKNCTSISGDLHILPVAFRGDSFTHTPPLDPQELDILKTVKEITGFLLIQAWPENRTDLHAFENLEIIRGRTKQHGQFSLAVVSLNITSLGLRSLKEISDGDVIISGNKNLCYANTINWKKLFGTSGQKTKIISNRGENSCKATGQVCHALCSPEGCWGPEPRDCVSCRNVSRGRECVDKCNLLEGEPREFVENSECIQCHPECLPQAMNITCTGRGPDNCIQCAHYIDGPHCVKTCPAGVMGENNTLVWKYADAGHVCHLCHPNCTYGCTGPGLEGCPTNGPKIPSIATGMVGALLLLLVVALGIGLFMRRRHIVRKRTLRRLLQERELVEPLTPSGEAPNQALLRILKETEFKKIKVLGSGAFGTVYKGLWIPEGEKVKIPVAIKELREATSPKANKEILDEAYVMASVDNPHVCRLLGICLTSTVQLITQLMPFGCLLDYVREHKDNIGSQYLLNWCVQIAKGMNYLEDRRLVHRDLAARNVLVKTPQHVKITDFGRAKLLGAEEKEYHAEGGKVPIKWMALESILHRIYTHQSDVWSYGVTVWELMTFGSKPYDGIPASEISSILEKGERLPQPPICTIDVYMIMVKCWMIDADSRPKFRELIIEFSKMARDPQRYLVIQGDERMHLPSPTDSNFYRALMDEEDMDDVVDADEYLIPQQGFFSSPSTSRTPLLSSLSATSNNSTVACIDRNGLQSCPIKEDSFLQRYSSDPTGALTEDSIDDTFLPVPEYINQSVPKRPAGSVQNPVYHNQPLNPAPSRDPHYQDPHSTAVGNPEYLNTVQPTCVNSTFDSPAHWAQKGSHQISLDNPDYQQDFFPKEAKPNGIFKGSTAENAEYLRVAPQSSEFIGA
The target of assay [9] is T1, Proto-oncogene tyrosine-protein kinase ROS. Description: Inhibition of ROS (unknown origin) at 1 uM by Eurofins kinase profiler method relative to control.

pIC50: −log10 of the molar value.

As to `CCc1cc2c(cc1N1CCC(N3CCN(C(=O)CCC(=O)c4ccc(OC)cc4)CC3)CC1)C(C)(C)c1[nH]c3cc(C#N)ccc3c1C2=O`, in assay [1], the GI50 (commonly the concentration giving 50% growth inhibition) was greater than 5000 nM.

For `COc1ccc(C(=O)CCC(=O)N2CCC(c3cc(OC(C)C)c(Nc4ncc(Cl)c(Nc5ccccc5S(=O)(=O)C(C)C)n4)cc3C)CC2)cc1`, the GI50 in assay [1] was 747 nM.

Turning to `COc1ccc(C(=O)CCC(=O)N2CCC(n3cc(-c4cnc(N)c(O[C@H](C)c5c(Cl)ccc(F)c5Cl)c4)cn3)CC2)cc1`, growth in assay [1] was halved (GI50) at 1100 nM.

`COc1ccc(C(=O)/C=C/C(=O)N2CCC(n3cc(-c4cnc(N)c(O[C@H](C)c5c(Cl)ccc(F)c5Cl)c4)cn3)CC2)cc1` returned a concentration for 50% growth inhibition (GI50) in assay [1] of 56 nM.

`COc1ccc(C(=O)/C=C/C(=O)N2CCC(c3cc(OC(C)C)c(Nc4ncc(Cl)c(Nc5ccccc5S(=O)(=O)C(C)C)n4)cc3C)CC2)cc1` yielded a concentration for 50% growth inhibition (GI50) in assay [1] of 209 nM.

In the case of `CC(C)C[C@H](NC(=O)[C@H](Cc1ccccc1)NC(=O)c1cnccn1)B(O)O`, the fold change (FC) in assay [2] came to 1.

Take `COc1cc(N2CCC(N3CCN(C)CC3)CC2)ccc1Nc1ncc(Cl)c(Nc2ccccc2P(C)(C)=O)n1` [BRIGATINIB]: the GI50 in assay [1] came to 35 nM; in [3] it was 43 nM.

In turn, `Cc1cc(Nc2ncc(Cl)c(Nc3ccccc3S(=O)(=O)C(C)C)n2)c(OC(C)C)cc1C1CCNCC1` [CERITINIB] showed a 50% growth inhibitory concentration (GI50) in assay [1] of 23 nM.

In the case of `COc1ccc(C(=O)/C=C/C(=O)N2CCN(C3CCN(c4ccc(Nc5ncc(Cl)c(Nc6ccccc6P(C)(C)=O)n5)c(OC)c4)CC3)CC2)cc1`, the concentration for 50% growth inhibition (GI50) in assay [1] and in assay [3] was 2 nM throughout. The pIC50 (in general, −log10 of the IC50, conventionally taken in molar units) is 6.73 in [4] and 7.01 in assay [6]. Besides, the inhibition – broadly, the drop in the measured response relative to a control, in per cent – was 44% in assay [5], 48% in assay [7], 82% in assay [8] and 73% in assay [9].

In assay [1], `CCc1cc2c(cc1N1CCC(N3CCN(C(=O)/C=C/C(=O)c4ccc(OC)cc4)CC3)CC1)C(C)(C)c1[nH]c3cc(C#N)ccc3c1C2=O` returned a 50% growth inhibitory concentration (GI50) of 88 nM.

As for `CCc1cc2c(cc1N1CCC(N3CCOCC3)CC1)C(C)(C)c1[nH]c3cc(C#N)ccc3c1C2=O` [ALECTINIB], it took 23 nM to inhibit growth in [1] by half (GI50).

Regarding `COc1ccc(C(=O)CCC(=O)N2CCN(C3CCN(c4ccc(Nc5ncc(Cl)c(Nc6ccccc6P(C)(C)=O)n5)c(OC)c4)CC3)CC2)cc1`, the 50% growth inhibitory concentration (GI50) in assay [1] came to 66 nM; in assay [3] it was 111 nM.
